Experiments:
[1] = tested on: human liver microsomal preparations (cytochrome P450 enzyme preparations); assay: Trapping of "soft" and "hard" reactive metabolites in microsomal incubations with compound of formula (I), neutral loss LC-MS/MS; format: in vitro ADME; conditions: 50 μM test compound, 2 mg/ml microsomal proteins, 3 mM NADPH, 37° C.; for adducts of reactive metabolites with ECHK detected: trapping agent ECHK 1 mM; for adducts of reactive metabolites with ECHK detected / adducts of reactive metabolites with EHCK detected: neutral loss scanning of 129 Da; for adducts of reactive metabolites with ECO detected: trapping agent ECO 1 mM, neutral loss scanning of 129 Da or 147 Da; for adducts of reactive metabolites with EHCK detected: trapping agent EHCK 1 mM
Experimental: All microsomal incubations described herein were performed at 37° C. in a water bath or on a heat block. The test compound was mixed with human liver microsomal preparations (cytochrome P450 enzyme preparations) in 100 mM potassium phosphate buffer (pH7.4) including 0.1 mM EDTA and the compound of formula (I). The resulting mixtures were pre-warmed at 37° C. for 5 min. To the reaction mixtures was then added the co-factor-NADPH (to initiate the reaction) to yield a final volume of 500 μl.
The resulting reaction mixtures contained 50 μM test compounds, 2 mg/ml microsomal proteins, 1 mM mixture of compound of formula (I) and 3 mM NADPH.
After 15 or 60 min incubation, the reactions were terminated by the addition of 1000 μl of 50% methanol/50% acetonitrile. The resulting mixtures were centrifuged at 10,000 g for 10 min at 4° C. to pellet the precipitated protein, and the supernatants were dried up. The resulting residue was solubilized with 50% methanol.
(§1) MS analyses were performed on an LTQ Orbitrap FTMS (Thermo Fisher Scientific, Inc., Bremen, Germany). The ESI ion source was operated in the positive ion mode. The entire eluent was sprayed into the mass spectrometer at +5 kV and desolvation of the solvent droplets was further aided by a heated capillary temperature of 350° C. Mass spectra collected in the neutral loss scanning mode were obtained by scanning over the range m/z 200-1100 at 30000 resolution.
For complete profiling of reactive metabolites, samples were first subjected to chromatographic separations with a Prominence LC system with an auto-sampler (Shimadzu Corp., Kyoto, Japan) and eluents were introduced to the LTQ Orbitrap FTMS operated in the neutral loss scanning mode. An L-column ODS (Octadecylsilyl-silica gels; 2.1×150 mm, Chemicals Evaluation and Research Institute, Tokyo, Japan) was used for the chromatographic separation. The chromatographic system used a binary solvent system delivered as a gradient of solvent A (5 mM ammonium acetate) and solvent B (95% acetonitrile included 5 mM ammonium acetate). […] The solvent composition was then held at 100% B for 8 min before re-equilibration at initial conditions. LC-MS/MS analyses were carried out on 20 μl aliquots of cleaned samples. Data acquisition was carried out using the Xcaliber version 2.0 software (Thermo Fisher Scientific, Inc., Bremen, Germany).

[2] = Trapping of acylglucuronides by incubation with compound of formula (I) in buffer, neutral loss LC-MS/MS; conditions: 100 μM diclofenac acylglucuronide, pH7.4 buffer, 60 min, 37° C.
Experimental: The resulting mixtures were pre-warmed at 37° C. for 5 min.
as §1
For complete profiling of reactive metabolites, samples were first subjected to chromatographic separations with a Prominence LC system with an auto-sampler (Shimadzu Corp., Kyoto, Japan) and eluents were introduced to the LTQ Orbitrap FTMS operated in the neutral loss scanning mode. […] The solvent composition was then held at 100% B for 8 min before re-equilibration at initial conditions. […] Data acquisition was carried out using the Xcaliber version 2.0 software (Thermo Fisher Scientific, Inc., Bremen, Germany).

SMILES: c1coc(-c2cccs2)c1 [2-[2-thienyl]-furan, 2-[2-Thienyl]-furan]
- adducts of reactive metabolites with ECHK detected [1]: three adducts
- adducts of reactive metabolites with ECO detected [1]: three adducts
- adducts of reactive metabolites with EHCK detected [1]: three adducts

SMILES: O=C(Cc1ccccc1Nc1c(Cl)cccc1Cl)O[C@@H]1O[C@H](C(=O)O)[C@@H](O)[C@H](O)[C@H]1O [diclofenac acylglucuronide, Diclofenac acylglucuronide]
- adduct of acylglucuronide with ECHK detected ([2]; trapping agent ECHK 1 mM, neutral loss scanning of 129 Da): adduct of diclofenac acylglucuronide with ECHK which was detected
- adduct of acylglucuronide with ECO detected ([2]; trapping agent ECO 1 mM, neutral loss scanning of 129 Da and 147 Da): adduct of diclofenac acylglucuronide with ECO which was detected
- adduct of acylglucuronide with EHCK detected ([2]; trapping agent EHCK 1 mM, neutral loss scanning of 129 Da): adduct of diclofenac acylglucuronide with EHCK which was detected

SMILES: O=C(O)Cc1ccccc1Nc1c(Cl)cccc1Cl [diclofenac, Diclofenac]
- adducts of reactive metabolites with ECHK detected [1]: two adducts
- adducts of reactive metabolites with ECO detected [1]: two adducts
- adducts of reactive metabolites with EHCK detected [1]: two adducts

Reference: patent US20120028284A1, “TRAPPING COMPOUNDS AND METHOD FOR IDENTIFYING REACTIVE METABOLITES” (EISAI R&D MANAGEMENT CO., LTD., priority 2009, published 2012)
